{"source": "patent US5972914A", "about": "“Remedies for liver diseases” (Meiji Milk Products Co., Ltd., priority 1998, dated 1999)", "key": {"[1]": {"test_system": "hepatic cirrhosis induced by N-nitrosodiethylamine, nodules on liver surface", "experiment": "Effect on hepatic cirrhosis (2): nodule formation on the liver surface", "assay_type": "in vivo, Sprague-Dawley rats", "experimental": "(§1) Groups Sprague-Dawley male rats (7 weeks old; Nippon SLC) were purchased and kept for five days before being used in the test. Each group consisted of 10 rats, and four groups were used in the test.\n(§2) An N-nitrosodiethylamine solution (5.32 ml; which corresponds to 5 g due to the specific gravity of 0.94) was measured into a measuring cylinder by use of a glass pipette, and physiological saline was added to make the total volume 100 ml. Subsequently, the solution was sonicated for 2 minutes to prepare a uniform N-nitrosodiethylamine solution (50 mg/ml). The solution was prepared just before use. N-nitrosodiethylamine was intraperitoneally administered to each rat at a dose of 100 mg/2 ml/kg once in the morning on days 0, 7, 14, 21, and 28 (day 0: the first day of administration of N-nitrosodiethylamine).\nAn ethanolamine hydrochloric acid salt was measured and dissolved in a certain amount of distilled water for injection use. The solution was suitably diluted and administered to each rat by oral route by use of an oral probe for rats.\nThe liver was visually observed, and then a portion thereof was fixed with 10% neutral formalin buffer. Portions of fixed samples were frozen and stored at -80° C. in a tightly-sealed container.\nThe formation of nodules was evaluated by five rankings."}, "[2]": {"test_system": "hydroxyproline, fibrosis of the liver", "experiment": "Effect on hepatic cirrhosis (2): hydroxyproline in liver as index of fibrosis", "assay_type": "in vivo, Sprague-Dawley rats", "experimental": "as §1, §2\nAn ethanolamine hydrochloric acid salt was measured and dissolved in a certain amount of distilled water for injection use. […]\nThe frozen liver tissue (1 g) was weighed and homogenized in a Teflon homogenizer together with pure water (3 ml). […] As an index of fibrosis, the amount of hydroxyproline was used, and the hydroxyproline content per g of liver tissue was calculated for comparison.\n(3) The amount of hydroxyproline, serving as an index of fibrosis of the liver, was determined by an amino acid analysis."}, "[3]": {"test_system": "hepatic cirrhosis induced by N-nitrosodiethylamine, clear cell foci", "experiment": "Effect on hepatic cirrhosis (2): formation of clear cell foci", "details": "N-nitrosodiethylamine 100 mg/kg i.p., days 0, 7, 14, 21, 28"}, "mice": {"test_system": "mice", "experiment": "Acute toxicity test", "assay_type": "in vivo, mice (ICR)", "details": "i.p.", "experimental": "The pH was adjusted to 7.0 by use of 5 N NaOH. Solutions having lower concentrations were prepared by dilution with physiological saline. Each solution (10 μl) was intraperitoneally injected to mice (ICR, female, 6-weeks old, 29 g), and the survival ratio was obtained."}, "serum transaminase GOT": {"test_system": "serum transaminase GOT", "experiment": "Serum GOT in mice with liver disorder induced by carbon tetrachloride", "assay_type": "in vivo, ddY mice", "experimental": "(§3) Carbon tetrachloride (5 ml, Wako Pure Chemicals) was put in a glass vial, and Panasate 800 (45 ml, Nippon Yushi Chemicals Co, Ltd.) was added to prepare a 10% (v/v) solution.\n(§4) Subsequently, the total amount was made to 50 ml. An aliquot of 2 ml was diluted in 38 ml of physiological saline.\n(§5) One group consisted of 10 mice. For 24 hours prior to the administration of tetrachloride, each mouse was fasted by being fed water only. 10% carbon tetrachloride/Panasate solution was intraperitoneally administered to each mice at a dose of 1 ml/kg.\n(§6) Blood was collected from the abdominal aorta by use of 1-ml disposable syringes (Terumo). The blood, dispensed into 1.5 ml Eppendorf tubes, was subjected to centrifugal separation at 5,000 rpm for 10 minutes to thereby obtain serum. The activity of transaminase (GOT, GPT) in the serum thus obtained was measured. The measurement was performed by use of a Cobas Mira System (Baxter)."}, "serum transaminase GPT": {"test_system": "serum transaminase GPT", "experiment": "Serum GPT in mice with liver disorder induced by carbon tetrachloride", "assay_type": "in vivo, ddY mice", "experimental": "as §3, §4, §5, §6"}, "liver necrosis": {"test_system": "liver necrosis", "experiment": "Histopathological profile of liver in mice with carbon tetrachloride liver disorder", "assay_type": "in vivo, ddY mice", "details": "ethanolamine administration", "experimental": "as §3, §4, §5"}, "rat hepatocyte": {"test_system": "rat hepatocyte", "experiment": "3H-TdR uptake by rat hepatocytes in primary culture (hepatocyte growth promoting activity)", "details": "in the presence of either the high molecular weight factor extract or EGF", "method": "In separation and identification of the low molecular weight factor showing hepatocyte proliferation promoting activity derived from epithelial mucosa of the bovine small intestine, the rat hepatocyte system in primary culture was used. To this culture system, a fraction of a crude extract of bovine small intestine epithelial mucosa in the course of purification was added in the presence of high molecular weight factor extract (1%) and insulin (10 μg/ml) or in the presence of EGF (20 ng/ml) and insulin (10 μg/ml), to thereby establish an assay system for measuring the uptake of ^3 H-TdR into DNA of rat hepatocyte nuclei.\nFractions each amounting 15 ml was added to the above-mentioned assay system and the uptake of ^3 H-TdR was measured."}, "[4]": {"test_system": "hepatocytes, tubular epithelial cells, dermal keratinocytes and melanocytes, type II epithelial cells of pulmonary alveolus, epithelial cells of gastric mucosa", "details": "cited from earlier work"}, "cancer cells": {"test_system": "cancer cells", "details": "cited from earlier work"}, "[5]": {"details": "N-nitrosodiethylamine 100 mg/kg i.p., days 0, 7, 14, 21, 28"}}, "note": "Where a name gives a salt, the structure may show the parent alone."}
{"compound": "CCN(CC)N=O", "note": "[N-nitrosodiethylamine, reference compound]", "values": [{"measurement": "nodules in the surface of the liver", "setting": "[1]; [5]", "result": "presented clear nodules in the surface of the liver"}, {"measurement": "hydroxyproline level", "setting": "[2]; [5]", "result": "significantly elevated"}, {"measurement": "formation of clear cell foci", "setting": "[3]", "result": "considerable formation of clear cell foci"}]}
{"compound": "NCCO", "note": "[EA-HCl, monoethanolamine-HCl]", "values": [{"measurement": "Survival, 1 day after admin.", "setting": "mice; 0.5 g/kg (calculated as EA)", "result": "4/4"}, {"measurement": "Survival, 6 days after admin.", "setting": "mice; 0.5 g/kg (calculated as EA)", "result": "4/4"}, {"measurement": "Survival, administration (day)", "setting": "mice; 0.5 g/kg (calculated as EA)", "result": "4/4"}, {"measurement": "Survival, 1 day after admin.", "setting": "mice; 1.25 g/kg (calculated as EA)", "result": "3/3"}, {"measurement": "Survival, 6 days after admin.", "setting": "mice; 1.25 g/kg (calculated as EA)", "result": "3/3"}, {"measurement": "Survival, administration (day)", "setting": "mice; 1.25 g/kg (calculated as EA)", "result": "3/3"}, {"measurement": "Survival, administration (day)", "setting": "mice; 2.5 g/kg (calculated as EA)", "result": "0/4"}, {"measurement": "time to death", "setting": "mice; 5.0 and 2.5 g/kg", "result": "≤ 30", "unit": "min"}, {"measurement": "Survival, administration (day)", "setting": "mice; 5.0 g/kg (calculated as EA)", "result": "0/4"}, {"measurement": "survival at six days", "setting": "mice; doses equal to or less than 1.25 g/kg", "result": "alive when six days had passed"}]}
{"compound": "NCCO", "note": "[ethanolamine, monoethanolamine]", "values": [{"measurement": "GOT level", "setting": "serum transaminase GOT; intraperitoneal, 2.8 mg/kg", "result": "significantly decreased"}, {"measurement": "GOT level", "setting": "serum transaminase GOT; peroral, 16 mg/kg", "result": "significantly decreased"}, {"measurement": "GPT level", "setting": "serum transaminase GPT; intraperitoneal, 2.8 mg/kg", "result": "significantly decreased"}, {"measurement": "GPT level", "setting": "serum transaminase GPT; peroral, 16 mg/kg", "result": "significantly decreased"}, {"measurement": "area of necrosis in histopathological profile of the liver", "setting": "liver necrosis", "result": "a tendency that the area of necrosis was reduced"}, {"measurement": "formation of nodules, difference vs N-nitrosodiethylamine group", "setting": "[1]; 15 mg/kg and 50 mg/kg, Dunnett's test", "result": "statistically significant"}, {"measurement": "prevention of hepatic cirrhosis induced by N-nitrosodiethylamine", "setting": "[1]; oral administration", "result": "can be prevented by oral administration of ethanolamine"}, {"measurement": "formation of nodules, dose dependence", "setting": "[1]; oral, 15 and 50 mg/kg, visual observation", "result": "the higher the dose of ethanolamine, the less significant the formation of nodules"}, {"measurement": "amount of hydroxyproline, dose dependence", "setting": "[2]; oral, 15 and 50 mg/kg", "result": "the higher the dose of ethanolamine, the lower the amount of hydroxyproline"}, {"measurement": "3H-TdR uptake, growth-stimulating effect", "setting": "rat hepatocyte", "result": "synergistic growth-stimulating effects"}]}
{"compound": "HGF: hepatocyte growth factor (HGF)", "values": [{"measurement": "mitogenic activity", "setting": "[4]", "result": "potent mitogen"}, {"measurement": "motogen function", "setting": "[4]; motion of cells", "result": "function as a motogen to stimulate motion of cells"}, {"measurement": "proliferation of cancer cells", "setting": "cancer cells", "result": "action to suppress proliferation of cancer cells"}]}
